# Source: patent US4396625A, “Treatment of glaucoma or ocular hypertension and ophthalmic composition” (Sumitomo Chemical Company, Limited, priority 1980, dated 1983)
# Structures can show the parent of a compound that is named as a salt.
# Legend:
# [1] = tested on: intra-ocular pressure of the eye; assay: Intra-ocular pressure measurement after ophthalmic administration in albino rabbits; format: in vivo; details: rabbit
# Protocol: (§1) One drop (about 0.04 ml) of the ophthalmic composition was applied to a conjunctival sac of one eye and a drop of physiologic saline was into the conjunctival sac of the other eye. Thus applied eyes were kept closed for 5 to 10 seconds to ensure the osmosis of the medicament administered. Intra-ocular pressure in the respective eye was measured by using an Alcon Pneumatonography, just before the treatment with said medicine, and 1 to 24 hours after said administration. At each time, one drop of 0.4% oxydibucaine HCl ophthalmic composition (Trade Mark: Benoxyl® 0.4%; Santen Seiyaku K.K.) was applied to and intra-ocular pressure was measured after 20 to 30 seconds thereafter.
# Using the same procedure as stated in Example 1, compound (I) was evaluated with 12 albino rabbits (male; body weight 2 to 3 kg, native kind). As the test medicaments, aqueous 0.5 w/v % and 0.25 w/v % compound (I) HCl solutions prepared according to Example 4 were used, as well as physiologic saline control solution.
# [2] = Stability / precipitation of ophthalmic solution on storage; format: physicochemical; details: 40° C., 3 months
# Protocol: To a part of distilled water required, was added 500 mg of compound (I) hydrochloride and the mixture was stirred at room temperature to dissolve the active ingredient. Next, D-mannitol 5 g, glycine 500 mg and Benzalkonium chloride 5 mg were added in this order and dissolved in the same way. After adjusting pH of the solution to 5.5 with hydrochloric acid, the mixture was added with distilled water to make the total volume to 100 ml. The solution was filtered under sterile conditions.
# The following ophthalmic composition was prepared in the same way as stated in Example 4, using 100 mg of compound (I) acetate in place of 500 mg of compound (I) hydrochloride.
# To a part of the required distilled water, was added 250 mg of compound (I) maleate, and the mixture was heated to 30° C. and stirred to dissolve the active ingredient. To this solution, 4 g of D-manitol, 1 g of glycine and 5 mg of Benzalkonium chloride were added and dissolved in this order. After adjusting pH of the solution to 6.0 with hydrochloric acid, the solution was added with distilled water to make the volume to 100 ml, and thus obtained solution was filtered under sterile conditions.
# [3] = tested on: intra-ocular pressure of the eye; assay: Intra-ocular pressure measurement after local (ophthalmic) administration in dogs; format: in vivo, dog (Beagle); details: dog, 0.5 w/v %, one drop
# Protocol: In the local administration tests, compound (I) was applied to one eye of healthy grown-up dog (male or female; body weight 10 to 14 kg; Beagle dog) being normal in sense of sight and other sensitive faculties and having no morphological abnormality in the eyes, and evaluated for the effect thereof.
# The test ophthalmic composition was prepared according to the recipe of Example 4, so as to include 0.5 w/v % of compound (I) HCl salt.
# as §1
# rat = assay: Rat acute toxicity; format: in vivo; details: acute toxicity
# Rat acute toxicity = format: in vivo; details: in vivo
# mouse = assay: Mouse acute toxicity; format: in vivo; details: acute toxicity
# Mouse acute toxicity = format: in vivo; details: in vivo
smiles,measurement,setting,value
CC(C)(C)NCC(O)CSc1nc(-c2ccc(C(N)=O)s2)cs1 (centres unmarked) [compound (I) HCl],Intra-ocular pressure (mean ± standard error),"[1]; 0.25 w/v %, 0.5 hour later",20.7 ± 0.7 mm Hg
same,Intra-ocular pressure (mean ± standard error),"[1]; 0.25 w/v %, 1 hour later",20.2 ± 0.6 mm Hg
same,Intra-ocular pressure (mean ± standard error),"[1]; 0.25 w/v %, 2 hours later",19.8 ± 0.5 mm Hg
same,Intra-ocular pressure (mean ± standard error),"[1]; 0.25 w/v %, 3 hours later",20.1 ± 0.6 mm Hg
same,Intra-ocular pressure (mean ± standard error),"[1]; 0.25 w/v %, 5 hours later",22.1 ± 0.6 mm Hg
same,Intra-ocular pressure (mean ± standard error),"[1]; 0.25 w/v %, 7 hours later",22.9 ± 0.8 mm Hg
same,Intra-ocular pressure (mean ± standard error),"[1]; 0.25 w/v %, 9 hours later",21.0 ± 0.7 mm Hg
same,Intra-ocular pressure (mean ± standard error),"[1]; 0.25 w/v %, 24 hours later",22.2 ± 0.6 mm Hg
same,Intra-ocular pressure (mean ± standard error),"[1]; 0.25 w/v %, before administration",21.8 ± 0.5 mm Hg
same,Intra-ocular pressure (mean ± standard error),"[1]; 0.5 w/v %, 0.5 hour later",21.1 ± 0.8 mm Hg
same,Intra-ocular pressure (mean ± standard error),"[1]; 0.5 w/v %, 1 hour later",18.9 ± 0.9 mm Hg
same,Intra-ocular pressure (mean ± standard error),"[1]; 0.5 w/v %, 2 hours later",18.5 ± 0.9 mm Hg
same,Intra-ocular pressure (mean ± standard error),"[1]; 0.5 w/v %, 3 hours later",18.2 ± 0.8 mm Hg
same,Intra-ocular pressure (mean ± standard error),"[1]; 0.5 w/v %, 5 hours later",21.6 ± 0.8 mm Hg
same,Intra-ocular pressure (mean ± standard error),"[1]; 0.5 w/v %, 7 hours later",22.8 ± 0.8 mm Hg
same,Intra-ocular pressure (mean ± standard error),"[1]; 0.5 w/v %, 9 hours later",22.2 ± 0.8 mm Hg
same,Intra-ocular pressure (mean ± standard error),"[1]; 0.5 w/v %, 24 hours later",22.5 ± 0.8 mm Hg
same,Intra-ocular pressure (mean ± standard error),"[1]; 0.5 w/v %, before administration",22.5 ± 0.6 mm Hg
same,stability / precipitation of ophthalmic solution,"[2]; 0.5 % (w/v), pH 5.5",very stable and no precipitation was observed
same,Intra-ocular pressure (mean ± standard error),[3]; 1 hour later,20.0 ± 0.9 mm Hg
same,Intra-ocular pressure (mean ± standard error),[3]; 3 hours later,16.6 ± 1.0 mm Hg
same,Intra-ocular pressure (mean ± standard error),[3]; 5 hours later,15.4 ± 0.9 mm Hg
same,Intra-ocular pressure (mean ± standard error),[3]; 7 hours later,16.0 ± 1.3 mm Hg
same,Intra-ocular pressure (mean ± standard error),[3]; 9 hours later,17.6 ± 1.2 mm Hg
same,Intra-ocular pressure (mean ± standard error),[3]; 12 hours later,20.4 ± 0.7 mm Hg
same,Intra-ocular pressure (mean ± standard error),[3]; 24 hours later,20.6 ± 0.8 mm Hg
same,Intra-ocular pressure (mean ± standard error),[3]; before administration,20.8 ± 0.9 mm Hg
CC(C)(C)NCC(O)CSc1nc(-c2ccc(C(N)=O)s2)cs1 (centres unmarked) [compound (I) acetate],stability / precipitation of ophthalmic solution,[2]; 0.1 % (w/v),very stable and no precipitation was observed
CC(C)(C)NCC(O)CSc1nc(-c2ccc(C(N)=O)s2)cs1 (centres unmarked) [compound (I) maleate],stability / precipitation of ophthalmic solution,"[2]; 0.25 % (w/v), pH 6.0",very stable and no precipitation was observed
"CC(C)(C)NCC(O)CSc1nc(-c2ccc(C(N)=O)s2)cs1 (centres unmarked) [compound (I), 2-(3-tert.-butylamino-2-hydroxypropylthio)-4-(5-carbamoyl-2-thienyl)-thiazole]",toxic signs,rat,no animals showed particular troublesome symptoms
same,LD50,"Rat acute toxicity; ip, intraperitoneal",340 mg/kg
same,LD50,Rat acute toxicity; oral,> 3000 mg/kg
same,toxic signs,mouse,no animals showed particular troublesome symptoms
same,LD50,"Mouse acute toxicity; ip, intraperitoneal",500 mg/kg
same,LD50,Mouse acute toxicity; oral,> 5000 mg/kg
